Source: ChEMBL document CHEMBL1201862, “PubChem BioAssay data set” (2004)
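Values below derive from 48-hour exposures of cells grown in 96-well plates, with endpoints linearly interpolated between the two concentrations bracketing the appropriate inhibition level. GI50 is the concentration that inhibits growth by half.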 Activity calls are given as the source filed them. Cut-off read from the data, not from the text of the source: active = GI50 up to about 1.1 µM and inactive = higher.

Experiments:
Experiment in all cases: inhibition of tumour cell growth, NCI panel, 48 h
[1] = test system: 786-0
[2] = test system: A549
[3] = test system: ACHN
[4] = test system: CAKI-1
[5] = test system: CCRF-CEM
[6] = test system: COLO 205
[7] = test system: DU-145
[8] = test system: EKVX
[9] = test system: HCC 2998
[10] = test system: HCT-116
[11] = test system: HCT-15
[12] = test system: HL-60
[13] = test system: HOP-62
[14] = test system: HOP-92
[15] = test system: HT-29
[16] = test system: Hs-578T
[17] = test system: IGROV-1
[18] = test system: K562
[19] = test system: KM12
[20] = test system: LOX IMVI
[21] = test system: M14
[22] = test system: MCF7
[23] = test system: MDA-MB-231
[24] = test system: MDA-MB-435
[25] = test system: MDA-N
[26] = test system: MOLT-4
[27] = test system: NCI-H226
[28] = test system: NCI-H23
[29] = test system: NCI-H460
[30] = test system: NCI/ADR-RES
[31] = test system: OVCAR-4
[32] = test system: OVCAR-5
[33] = test system: OVCAR-8
[34] = test system: PC-3
[35] = test system: RPMI-8226
[36] = test system: RXF 393
[37] = test system: SF-295
[38] = test system: SK-MEL-28
[39] = test system: SK-MEL-2
[40] = test system: SK-MEL-5
[41] = test system: SK-OV-3
[42] = test system: SN12C
[43] = test system: SNB-19
[44] = test system: SNB-75
[45] = test system: SR
[46] = test system: T47D
[47] = test system: TK-10
[48] = test system: U-251
[49] = test system: UACC-257
[50] = test system: UACC-62
[51] = test system: UO-31
[52] = test system: A498
[53] = test system: Malme-3M
[54] = test system: SF-268
[55] = test system: SF-539
[56] = test system: SW-620

**Q.** Which results are given for `C[C@@H](c1ccccc1)N1CO[C@@]2(C#Cc3ccc4c(c3)OCO4)CCC[C@@H]12`?
**A.** GI50 [1]: 17.8 µM (inactive); GI50 [2]: 14.8 µM (inactive); GI50 [3]: > 100 µM (inactive); GI50 [4]: 16.3 µM (inactive); GI50 [5]: 19.8 µM (inactive); GI50 [6]: 15.8 µM (inactive); GI50 [7]: 16.1 µM (inactive); GI50 [8]: 20.3 µM (inactive); GI50 [9]: 17.9 µM (inactive); GI50 [10]: 12 µM (inactive); GI50 [11]: 12.6 µM; GI50 [12]: 7.94 µM (inactive); GI50 [13]: 15.8 µM (inactive); GI50 [14]: 5.3 µM (inactive); GI50 [15]: 16.6 µM (inactive); GI50 [16]: 15.9 µM (inactive); GI50 [17]: 10.7 µM (inactive); GI50 [18]: 13.8 µM (inactive); GI50 [19]: 15.7 µM (inactive); GI50 [20]: 12.7 µM (inactive); GI50 [21]: 14.8 µM (inactive); GI50 [22]: > 100 µM (inactive); GI50 [23]: 13.3 µM (inactive); GI50 [24]: 13.7 µM (inactive); GI50 [25]: 17.3 µM (inactive); GI50 [26]: 9.59 µM (inactive); GI50 [27]: 20.6 µM (inactive); GI50 [28]: 14.7 µM (inactive); GI50 [29]: 13.3 µM (inactive); GI50 [30]: 14.7 µM (inactive); GI50 [31]: 13.8 µM (inactive); GI50 [32]: 18.1 µM (inactive); GI50 [33]: 14 µM (inactive); GI50 [34]: 12.4 µM (inactive); GI50 [35]: 11.2 µM (inactive); GI50 [36]: 11.6 µM (inactive); GI50 [37]: 14.9 µM (inactive); GI50 [38]: 17.5 µM (inactive); GI50 [39]: 18.3 µM (inactive); GI50 [40]: 13.1 µM (inactive); GI50 [41]: 17.4 µM (inactive); GI50 [42]: 17.1 µM (inactive); GI50 [43]: 16.1 µM (inactive); GI50 [44]: 13.9 µM (inactive); GI50 [45]: 8.67 µM (inactive); GI50 [46]: 16.4 µM (inactive); GI50 [47]: 15.5 µM (inactive); GI50 [48]: 13.6 µM (inactive); GI50 [49]: 17.5 µM (inactive); GI50 [50]: > 100 µM (inactive); GI50 [51]: 14.4 µM (inactive)

**Q.** `O=C(/C=C/c1ccc(Cl)cc1)c1cccs1` was tested. Which GI50 [1] did it give?
**A.** 15 µM (inactive)

**Q.** And the GI50 [52]?
**A.** 23.3 µM (inactive)

**Q.** What about the GI50 [2] of the same molecule?
**A.** 29.1 µM (inactive)

**Q.** And the GI50 [3]?
**A.** 20 µM (inactive)

**Q.** What about the GI50 [4] of the same molecule?
**A.** 24 µM (inactive)

**Q.** And the GI50 [5]?
**A.** 6.61 µM (inactive)

**Q.** What about the GI50 [6] of the same molecule?
**A.** 19.3 µM (inactive)

**Q.** And the GI50 [7]?
**A.** 40.6 µM (inactive)

**Q.** And the GI50 [8]?
**A.** 26.6 µM (inactive)

**Q.** What about the GI50 [9] of the same molecule?
**A.** 18.6 µM (inactive)

**Q.** And the GI50 [10]?
**A.** 14.8 µM (inactive)

**Q.** What about the GI50 [11] of the same molecule?
**A.** 17.5 µM

**Q.** And the GI50 [12]?
**A.** 7.19 µM (inactive)

**Q.** What about the GI50 [13] of the same molecule?
**A.** 26.5 µM (inactive)

**Q.** And the GI50 [15]?
**A.** 16.5 µM (inactive)

**Q.** And the GI50 [16]?
**A.** 36 µM (inactive)

**Q.** What about the GI50 [17] of the same molecule?
**A.** 29.9 µM (inactive)

**Q.** And the GI50 [18]?
**A.** 4.03 µM (inactive)

**Q.** What about the GI50 [19] of the same molecule?
**A.** 13.9 µM (inactive)

**Q.** What about the GI50 [20] of the same molecule?
**A.** 11.4 µM (inactive)

**Q.** And the GI50 [21]?
**A.** 20.9 µM (inactive)

**Q.** And the GI50 [22]?
**A.** 3.62 µM (inactive)

**Q.** And the GI50 [23]?
**A.** 20 µM (inactive)

**Q.** What about the GI50 [24] of the same molecule?
**A.** 13 µM (inactive)

**Q.** What about the GI50 [25] of the same molecule?
**A.** 16.3 µM (inactive)

**Q.** What about the GI50 [26] of the same molecule?
**A.** 15.7 µM (inactive)

**Q.** What about the GI50 [53] of the same molecule?
**A.** 16.6 µM (inactive)

**Q.** What about the GI50 [27] of the same molecule?
**A.** 22.4 µM (inactive)

**Q.** And the GI50 [28]?
**A.** > 10 µM (inactive)

**Q.** And the GI50 [29]?
**A.** 18.4 µM (inactive)

**Q.** And the GI50 [30]?
**A.** 24.3 µM (inactive)

**Q.** And the GI50 [31]?
**A.** > 10 µM (inactive)

**Q.** What about the GI50 [33] of the same molecule?
**A.** 21.7 µM (inactive)

**Q.** And the GI50 [34]?
**A.** 18.2 µM (inactive)

**Q.** What about the GI50 [35] of the same molecule?
**A.** 3.1 µM (inactive)

**Q.** And the GI50 [54]?
**A.** 29.7 µM (inactive)

**Q.** What about the GI50 [37] of the same molecule?
**A.** 20 µM (inactive)

**Q.** And the GI50 [55]?
**A.** 34.3 µM (inactive)

**Q.** And the GI50 [38]?
**A.** 26.2 µM (inactive)

**Q.** What about the GI50 [39] of the same molecule?
**A.** 24.5 µM (inactive)

**Q.** And the GI50 [40]?
**A.** 18.2 µM (inactive)

**Q.** What about the GI50 [41] of the same molecule?
**A.** 26.4 µM (inactive)

**Q.** What about the GI50 [42] of the same molecule?
**A.** 16.5 µM (inactive)

**Q.** What about the GI50 [43] of the same molecule?
**A.** 18.2 µM (inactive)

**Q.** And the GI50 [44]?
**A.** 22.5 µM (inactive)

**Q.** What about the GI50 [45] of the same molecule?
**A.** 6.24 µM (inactive)

**Q.** What about the GI50 [56] of the same molecule?
**A.** 12.9 µM (inactive)

**Q.** And the GI50 [46]?
**A.** 21 µM (inactive)

**Q.** And the GI50 [47]?
**A.** 20.8 µM (inactive)

**Q.** And the GI50 [48]?
**A.** 16 µM (inactive)

**Q.** And the GI50 [49]?
**A.** 19.6 µM (inactive)

**Q.** What about the GI50 [50] of the same molecule?
**A.** 21 µM (inactive)

**Q.** And the GI50 [51]?
**A.** 18 µM (inactive)
